Results published in the supplement of paper PMC10307832.

What was measured:
Assay in all cases: relative viability (nuclei count vs DMSO), 5 days (fraction); higher = more cells survive
Linsitinib + Lapatinib = compound: C[C@]1(O)C[C@@H](c2nc(-c3ccc4ccc(-c5ccccc5)nc4c3)c3c(N)nccn32)C1 [Linsitinib] + CS(=O)(=O)CCNCc1ccc(-c2ccc3ncnc(Nc4ccc(OCc5cccc(F)c5)c(Cl)c4)c3c2)o1 [Lapatinib] (partner 2 µM)
Summary of the method: (§1)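 One day after seeding in 1536-well plates, lung cancer cell lines were dosed by pin tool. Dosing was either single-drug or a fixed anchor-drug dose plus five library-drug doses (not always all listed) in √10 steps. After 5 days, nuclei were stained in one fix-and-stain step and counted on 4× images, and relative viability is the nuclei count of treated wells over that of vehicle wells, given as the median of duplicate plates.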

Ispinesib + Navitoclax = compound: Cc1ccc(C(=O)N(CCCN)[C@@H](c2nc3cc(Cl)ccc3c(=O)n2Cc2ccccc2)C(C)C)cc1 [Ispinesib] + CC1(C)CCC(c2ccc(Cl)cc2)=C(CN2CCN(c3ccc(C(=O)NS(=O)(=O)c4ccc(N[C@H](CCN5CCOCC5)CSc5ccccc5)c(S(=O)(=O)C(F)(F)F)c4)cc3)CC2)C1 [Navitoclax] (partner 0.5 µM)
Summary of the method: as §1

Ispinesib + Crizotinib = compound: Cc1ccc(C(=O)N(CCCN)[C@@H](c2nc3cc(Cl)ccc3c(=O)n2Cc2ccccc2)C(C)C)cc1 [Ispinesib] + C[C@@H](Oc1cc(-c2cnn(C3CCNCC3)c2)cnc1N)c1c(Cl)ccc(F)c1Cl [Crizotinib] (partner 1 µM)
Summary of the method: as §1

Ispinesib + AZD7762 = compound: Cc1ccc(C(=O)N(CCCN)[C@@H](c2nc3cc(Cl)ccc3c(=O)n2Cc2ccccc2)C(C)C)cc1 [Ispinesib] + NC(=O)Nc1cc(-c2cccc(F)c2)sc1C(=O)N[C@H]1CCCNC1 [AZD7762] (partner 0.2 µM)
Summary of the method: as §1

Cell Line	relative viability (Linsitinib + Lapatinib; first compound 0.01 µM)	relative viability (Linsitinib + Lapatinib; first compound 0.03162 µM)	relative viability (Linsitinib + Lapatinib; first compound 0.1 µM)	relative viability (Linsitinib + Lapatinib; first compound 1 µM)	relative viability (Ispinesib + Navitoclax; first compound 0.001 µM)	relative viability (Ispinesib + Navitoclax; first compound 0.003162 µM)	relative viability (Ispinesib + Navitoclax; first compound 0.01 µM)	relative viability (Ispinesib + Navitoclax; first compound 0.03162 µM)	relative viability (Ispinesib + Navitoclax; first compound 0.1 µM)	relative viability (Ispinesib + Crizotinib; first compound 0.001 µM)	relative viability (Ispinesib + Crizotinib; first compound 0.003162 µM)	relative viability (Ispinesib + Crizotinib; first compound 0.01 µM)	relative viability (Ispinesib + Crizotinib; first compound 0.03162 µM)	relative viability (Ispinesib + Crizotinib; first compound 0.1 µM)	relative viability (Ispinesib + AZD7762; first compound 0.001 µM)	relative viability (Ispinesib + AZD7762; first compound 0.003162 µM)	relative viability (Ispinesib + AZD7762; first compound 0.01 µM)	relative viability (Ispinesib + AZD7762; first compound 0.03162 µM)	relative viability (Ispinesib + AZD7762; first compound 0.1 µM)	relative viability (Linsitinib + Lapatinib; first compound 0.3162 µM)
HCC-827	0.208	0.197	0.17	0.224	0.996	1.06	1.03	1	1.01	0.965	0.91	0.957	0.918	0.69	0.229	0.21	0.146	0.198	0.197	
HOP-62	1.06	1.15	1.01	0.631	1.19	1.12	1.53	1.12	0.171	0.966	1.04	0.792	0.976	0.918	0.441	0.848	0.679	0.482	0.214	
LC-2-ad	0.934	0.691	0.941	0.766	0.391	0.487	0.474	0.171	0.122	0.447	0.317	0.439	0.368	0.283	0.942	0.941	1.02	0.425	0.322	0.332
LCLC-97TM1	0.953	0.75	0.639	0.193	0.433	0.489	0.52	0.557	0.157	0.291	0.381	0.508	0.236	0.175	0.322	0.348	0.326	0.247	0.119	0.403
LK-2	0.899	0.995	0.844	0.695	0.93	0.808	1.01	0.661	0.298	0.169	0.269	0.213	0.21	0.333	0.358	0.552	0.306	0.154	0.185	0.657
LOU-NH91	0.698	0.655	0.706	0.579	0.647	0.71	0.64	0.407	0.333	0.764	0.744	0.706	0.671	0.536	0.807	0.854	0.877	0.432	0.297	0.741
LU99A	0.953	0.951	0.952	0.57	0.857	0.757	1.02	0.627	0.141	0.503	0.589	0.569	0.421	0.231	0.474	0.368	0.394	0.161	0.14	0.377
LXF-289	0.924	0.911	0.901	0.886	0.934	0.995	1.12	0.922	0.469	0.798	0.815	0.888	0.759	0.397	1.09	1.12	1.22	0.788	0.119	0.643
NCI-H23	1.19	0.904	1.04	0.587	0.803	0.783	1.04	0.794	0.472	0.475	0.46	0.595	0.499	0.283	0.202	0.254	0.274	0.184	0.157	0.21
NCI-H322M	0.63	0.612	0.567	0.507	1.2	1.13	1.15	1.14	1.15	1.03	0.918	0.976	0.747	0.973	0.561	0.654	0.464	0.494	0.484	0.933
NCI-H460	1	0.784	1.03	0.868	1.43	1.33		0.785	0.0262	1.11	1.07		0.38	0.083	0.711	0.757	1.01	0.632	0.0769	0.699
NCI-H596	1.05	1.07	1.05	0.991	0.865	0.9	1.07	1.05	0.458	1.1	0.95	1	1.03	0.652	1.2	0.683	1.19	1.15	0.423	0.965
NCI-H647	1.12	1.11	1.09	0.854	1.22	0.978	1.41	0.461	0.0986	1.18	0.869	0.942	0.416	0.207	0.662	0.564	0.451	0.185	0.172	
NCI-H727	0.716	0.724	0.863	0.377		0.519	0.507	0.387	0.26		0.943	1.02	0.632	0.408	0.722	0.564		0.548	0.498	0.428
NCI-H838	0.963	0.929	0.883	0.591	1.33	1.23	1.37	0.994	0.25	0.955	0.901	1.22	0.725	0.285	1.01	0.804	1.03	0.941	0.714	0.286
NCI-H1355	1.04	0.983	0.865	0.546	0.996	0.878	0.927	1.08	0.688	1.13	1.19	1.29	1.15	0.451	0.783	0.847	0.805	0.448	0.284	0.547
